In ChEMBL document CHEMBL1221200, “Diarylquinolines target subunit c of mycobacterial ATP synthase” (Nat Chem Biol, 2007):
≈ marks a conversion by molar mass, not a printed value.

Test system: Mycobacterium tuberculosis
Experiment: Antimicrobial activity against Mycobacterium bovis BCG by alamar blue assay
Type: functional, variant bovis BCG

Row | Compound | MIC90 [µg/mL] | MIC90 (Mycobacterium tuberculosis, variant bovis BCG, read-out: MIC90) [µg/mL]
1 | COc1nc2ccc(Br)cc2cc1[C@H](c1ccccc1)[C@@](O)(CCN(C)C)c1cccc2ccccc12 (racemic; 1c) | 7.9 (≈ 14.2 µM) | –
2 | COc1nc2ccc(Br)cc2cc1[C@H](c1ccccc1)[C@@](O)(CCN(C)C)c1cccc2ccccc12 (racemic; 1d) | 1.8 (≈ 3.24 µM) | –
3 | COc1nc2ccc(Br)cc2cc1[C@@H](c1ccccc1)[C@@](O)(CCN(C)C)c1cccc2ccccc12 (single isomer, unassigned) [BEDAQUILINE] | 1.8 (≈ 3.24 µM) | –
4 | COc1nc2ccc(Br)cc2cc1[C@@H](c1ccccc1)[C@@](O)(CCN(C)C)c1cccc2ccccc12 [BEDAQUILINE] | 0.07 (≈ 0.126 µM) | –
5 | CO[C@H]1/C=C/O[C@@]2(C)Oc3c(C)c(O)c4c(O)c(c(/C=N/N5CCN(C)CC5)c(O)c4c3C2=O)NC(=O)/C(C)=C\C=C\[C@H](C)[C@H](O)[C@@H](C)[C@@H](O)[C@@H](C)[C@H](OC(C)=O)[C@@H]1C [RIFAMPIN] | – | 0.02 (≈ 0.0243 µM)
